Measured values as given in ChEMBL document CHEMBL1201862, “PubChem BioAssay data set” (2004).
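1) Cells in 96-well plates. 2) Compound, 48 h, 5 concentrations. 3) Linear interpolation between surrounding doses. 4) Unreached endpoint = highest concentration. The concentration for 50% growth inhibition is given as GI50.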 The source made the active and inactive calls. Rule as the data show it: active = GI50 up to about 1.1 µM and inactive = higher.

Experiments:
Test in all cases: inhibition of tumour cell growth, NCI panel, 48 h
A498 = test system: A498
A549 = test system: A549
CAKI-1 = test system: CAKI-1
CCRF-CEM = test system: CCRF-CEM
HCC 2998 = test system: HCC 2998
HOP-62 = test system: HOP-62
HOP-92 = test system: HOP-92
Hs-578T = test system: Hs-578T
LOX IMVI = test system: LOX IMVI
M14 = test system: M14
NCI-H226 = test system: NCI-H226
NCI-H23 = test system: NCI-H23
SK-MEL-28 = test system: SK-MEL-28
SN12C = test system: SN12C
T47D = test system: T47D
TK-10 = test system: TK-10
UACC-257 = test system: UACC-257
UACC-62 = test system: UACC-62
SK-OV-3 = test system: SK-OV-3
UO-31 = test system: UO-31

Measured: GI50

O=c1oc2ccccc2cc1P(=O)(O)O
inactive: A498 > 100 µM | A549 > 100 µM | CAKI-1 > 100 µM | CCRF-CEM > 100 µM | HCC 2998 > 100 µM | HOP-62 > 100 µM | HOP-92 > 100 µM | Hs-578T > 100 µM | LOX IMVI > 100 µM | M14 > 100 µM | NCI-H226 > 100 µM | NCI-H23 > 100 µM | SK-MEL-28 > 100 µM | SN12C > 100 µM | T47D > 100 µM | TK-10 > 100 µM | UACC-257 > 100 µM | UACC-62 > 100 µM

CCCCc1ccc(Nc2nc(O)c3ncn(COCCO)c3n2)cc1
inactive: A498 > 100 µM | A549 > 100 µM | CCRF-CEM > 100 µM | HCC 2998 > 100 µM | HOP-62 > 100 µM | HOP-92 > 100 µM | Hs-578T > 100 µM | LOX IMVI > 100 µM | M14 > 100 µM | NCI-H226 > 100 µM | NCI-H23 93.8 µM | SK-OV-3 > 100 µM | SN12C > 100 µM | T47D 73.1 µM | TK-10 > 100 µM | UACC-257 > 100 µM | UACC-62 > 100 µM | UO-31 > 100 µM

C1=CN2C[n+]3cccc(OCc4ccccc4)c3N=C2C(OCc2ccccc2)=C1
inactive: A498 85.9 µM | A549 19.5 µM | CAKI-1 22 µM | HCC 2998 5.83 µM | HOP-62 17.6 µM | HOP-92 12.5 µM | Hs-578T 2.36 µM | LOX IMVI 20.8 µM | M14 16.4 µM | NCI-H226 29.4 µM | NCI-H23 10.3 µM | SK-MEL-28 14.2 µM | SK-OV-3 > 100 µM | SN12C 3.43 µM | T47D 12.8 µM | TK-10 56 µM | UACC-257 8.71 µM | UACC-62 11.9 µM | UO-31 > 100 µM

O=C(O)c1ccccc1/C=N/N=C1NCCN1
inactive: A498 26.8 µM | A549 > 100 µM | CCRF-CEM > 100 µM | HCC 2998 > 100 µM | HOP-62 > 100 µM | HOP-92 22.7 µM | Hs-578T > 100 µM | LOX IMVI > 100 µM | M14 > 100 µM | NCI-H226 > 100 µM | NCI-H23 > 100 µM | SK-MEL-28 > 100 µM | SK-OV-3 61.5 µM | T47D > 100 µM | TK-10 46.8 µM | UACC-257 84.1 µM | UACC-62 > 100 µM | UO-31 44.4 µM

CC1(C)S[C@H](CN)N[C@H]1C(=O)OC(c1ccccc1)c1ccccc1
inactive: A498 20 µM | A549 42.2 µM | CAKI-1 34.4 µM | HCC 2998 18.6 µM | HOP-62 49.9 µM | HOP-92 16.7 µM | Hs-578T 83.2 µM | LOX IMVI 17.4 µM | M14 34.2 µM | NCI-H226 > 100 µM | NCI-H23 48.3 µM | SK-MEL-28 56.5 µM | SK-OV-3 78.3 µM | SN12C 32.4 µM | T47D 27.9 µM | TK-10 61.7 µM | UACC-257 17.4 µM | UACC-62 22.9 µM | UO-31 22.3 µM

Cc1ccc(S(=O)(=O)c2ccsc2NC(=O)C(F)(F)F)cc1
inactive: A498 53 µM | A549 34 µM | CAKI-1 34.9 µM | HCC 2998 29 µM | HOP-62 34.7 µM | HOP-92 30.9 µM | Hs-578T 32.7 µM | LOX IMVI 28.2 µM | M14 43.4 µM | NCI-H226 39.7 µM | NCI-H23 34.5 µM | SK-MEL-28 93.5 µM | SK-OV-3 36.8 µM | SN12C 25.2 µM | T47D 39.3 µM | TK-10 61.1 µM | UACC-257 30.3 µM | UACC-62 35.7 µM | UO-31 28.9 µM

N#Cc1c(C#N)c(SSc2c(C#N)c(C#N)c(N)n2-c2ccccc2)n(-c2ccccc2)c1N
inactive: A498 20.7 µM | A549 36 µM | CAKI-1 2.14 µM | HCC 2998 20.9 µM | HOP-62 28.4 µM | HOP-92 2.08 µM | Hs-578T 24.7 µM | LOX IMVI 86.7 µM | M14 7.69 µM | NCI-H226 22.3 µM | NCI-H23 23.6 µM | SK-MEL-28 20.3 µM | SK-OV-3 19.3 µM | SN12C 19.7 µM | T47D 2.44 µM | TK-10 1.82 µM | UACC-257 24.8 µM | UACC-62 16.9 µM | UO-31 1.91 µM

[N-]=[N+]=Nc1cc(=O)n2c3c(cccc13)CCC2
inactive: A498 > 100 µM | A549 > 100 µM | CCRF-CEM > 100 µM | HCC 2998 > 100 µM | HOP-62 > 100 µM | HOP-92 > 100 µM | Hs-578T > 100 µM | LOX IMVI > 100 µM | M14 > 100 µM | NCI-H226 > 100 µM | NCI-H23 > 100 µM | SK-MEL-28 > 100 µM | SN12C > 100 µM | T47D > 100 µM | TK-10 > 100 µM | UACC-257 > 100 µM | UACC-62 > 100 µM | UO-31 > 100 µM

CC(C)(C)C1=NC(=P(c2ccccc2)(c2ccccc2)c2ccccc2)C(=O)O1
inactive: A498 > 100 µM | A549 > 100 µM | CAKI-1 > 100 µM | CCRF-CEM > 100 µM | HOP-62 > 100 µM | HOP-92 > 100 µM | Hs-578T > 100 µM | LOX IMVI > 100 µM | M14 > 100 µM | NCI-H226 > 100 µM | NCI-H23 > 100 µM | SK-MEL-28 > 100 µM | SK-OV-3 > 100 µM | SN12C > 100 µM | T47D > 100 µM | TK-10 > 100 µM | UACC-257 > 100 µM | UACC-62 > 100 µM | UO-31 > 100 µM

N#Cc1nc(CSCc2ccccc2)oc1N
inactive: A498 > 100 µM | A549 > 100 µM | CAKI-1 > 100 µM | CCRF-CEM 19.8 µM | HCC 2998 > 100 µM | HOP-62 > 100 µM | HOP-92 > 100 µM | Hs-578T > 100 µM | M14 > 100 µM | NCI-H226 > 100 µM | NCI-H23 > 100 µM | SK-MEL-28 > 100 µM | SK-OV-3 > 100 µM | SN12C > 100 µM | T47D > 100 µM | TK-10 > 100 µM | UACC-257 > 100 µM | UACC-62 > 100 µM | UO-31 > 100 µM

COc1nc(N(C)C)nc2c1[n+](C)cn2C [HETEROMINE A]
inactive: A498 > 100 µM | A549 46.9 µM | CAKI-1 > 100 µM | CCRF-CEM 30.3 µM | HOP-62 > 100 µM | HOP-92 > 100 µM | Hs-578T 40.3 µM | LOX IMVI 84.5 µM | M14 > 100 µM | NCI-H226 > 100 µM | NCI-H23 22.4 µM | SK-MEL-28 88.9 µM | SK-OV-3 > 100 µM | SN12C 72.8 µM | T47D 41.5 µM | TK-10 > 100 µM | UACC-257 53.1 µM | UACC-62 > 100 µM | UO-31 > 100 µM
